Results on one sequence are retold here after US20040192889A1, “Cytotoxic peptides and peptidomimetics based thereon, and methods for use thereof” (priority 2001, published 2004).

No end group written: not given here.

For one data set, the system named is hippocampal neurons. Briefly: Toxicity of transduced peptides to neurons in primary hippocampal cultures (NeuN immunostaining, quantitative image analysis). It counts as cell-based. As to conditions: primary culture; read-out: LC50 for hippocampal neurons. As for the experimental part:
(§1) Hippocampal or cortical neurons derived from 17-day old rat embryos were plated in modified minimum essential media (MEM-PAK) supplemented with 5% horse serum. Three days later, the cultures were treated with 10 μM cytosine arabinoside (AraC). Twenty-four h later the cells were treated with the peptide conjugates and incubated for an additional 24 or 48 h. Cells were incubated in the presence of 50 μM of the general caspase inhibitor BOC-Asp(Ome)-FMK (BAF) for 30 min prior to addition of peptides or with an equivalent volume of dimethylsulfoxide (DMSO) and then maintained in the presence of the same concentration of the inhibitor for the duration of the experiment. In all experiments involving Aβ, a 1 mM Aβ42 stock solution was used that had been incubated at 37° C. for 48 h and then stored at 4° C. to allow for the formation of Aβ fibrils. Aβ42 was purchased from AnaSpec (San Jose, Calif.).
(§2) Peptides were synthesized and purified at the Stanford University Protein and Nucleic Acid (PAN) Facility. All peptide stocks were solubilized in water at 1 or 10 mM concentration. […] A control peptide used was a fusion of the human immunodeficiency virus-1 TAT protein (HIV-TAT) delivery peptide sequence (Hileman et al., FEBS Lett. 415:145-154 (1997) and the first helix of the p75 receptor intracellular domain.
Hippocampal cultures were fixed in 4% paraformaldehyde in 1× phosphate-buffered saline (PBS) for 20 min at room temperature (RT). Cells were then rinsed in 1× PBS and then washed once in 1× Tris-buffered saline (TBS) followed by blocking in 10% donkey serum (Jackson ImmunoResearch Labs, West Grove, Pa.) with 0.1% Triton X-100 in 1×TBS for 1 h at RT. Cultures were incubated overnight in the presence of rabbit anti-GFAP (Sigma, St. Louis) at 1:800 dilution and mouse anti-NeuN (Chemicon, Temecula, Calif.) at 1:100 at 4° C. Negative controls were incubated in 2 mg/ml rabbit and mouse preinimune IgGs (Sigma, St. Louis). All primary antibodies were diluted in 1×TBS containing 10% donkey serum. Cultures were washed for 90 min in 4 changes of 1×TBS and incubated in the presence of donkey anti-rabbit IgG conjugated to Cy3 and donkey anti-mouse IgG conjugated to FITC (Jackson ImmunoResearch Laboratories, Inc., West Grove, Pa.), at 1:250 and 1:400, respectively, in 1×TBS containing 1% donkey serum for 1 h at RT. Cells were washed for 90 min in 4 changes of 1×TBS and mounted in VectaShield-DAPI mounting medium (Vector Laboratories, Burlingame, Calif.). Images were acquired using Nikon Eclipse-800 microscope and Optronics MagnaFire camera and software, and analyzed using Compix Simple PCI software. The total surface area corresponding to red and green fluorescence in each confocal image was determined by image analysis using Simple PCI software (Compix, Inc., Philadelphia).
To investigate whether this was due to a greater sensitivity of neurons than glial cells to DP-APPC31-induced death, 3-day-old rat hippocampal cultures were exposed to increasing concentrations of DP-APPC31 or control DP peptide and fixed 48 h after transduction. The fixed cultures were then immunostained with antibodies specific for GFAP (red) and NeuN (green). A quantitative assessment of the total area of red and green fluorescence present in low-magnification confocal images of representative fields obtained from three independent experiments was performed using a digital image analysis system (SimplePCl, Compix, Inc, Philadelphia).
APLP1C31 induces death in primary hippocampal cultures. […] If this event occurs in vivo, APLP1 would have the potential to generate a pro-apoptotic C-terminal peptide homologous to APPC31. To deterinine whether the peptide generated by caspase cleavage of APLP1 is toxic, a fusion of APLP1C31 to the Antennapedia delivery peptide (DP-APLP1C31) was generated and assayed in protein transduction experiments. […]

The subject of the next data set is glial cells. Briefly: Toxicity of transduced peptides to glial cells in primary hippocampal cultures (GFAP immunostaining, quantitative image analysis). The note with it: rat, astrocytes (glial cells in primary hippocampal cultures). It counts as cell-based, rat. As for the experimental part: as §1
(§3) Peptides were synthesized and purified at the Stanford University Protein and Nucleic Acid (PAN) Facility. All peptide stocks were solubilized in water at 1 or 10 mM concentration. […]
Hippocampal cultures were fixed in 4% paraformaldehyde in 1× phosphate-buffered saline (PBS) for 20 min at room temperature (RT). […] Images were acquired using Nikon Eclipse-800 microscope and Optronics MagnaFire camera and software, and analyzed using Compix Simple PCI software. The total surface area corresponding to red and green fluorescence in each confocal image was determined by image analysis using Simple PCI software (Compix, Inc., Philadelphia).
To investigate whether this was due to a greater sensitivity of neurons than glial cells to DP-APPC31-induced death, 3-day-old rat hippocampal cultures were exposed to increasing concentrations of DP-APPC31 or control DP peptide and fixed 48 h after transduction. […] A quantitative assessment of the total area of red and green fluorescence present in low-magnification confocal images of representative fields obtained from three independent experiments was performed using a digital image analysis system (SimplePCl, Compix, Inc, Philadelphia). […]

The subject of data set [1] is 293T human embryonic kidney cells. Briefly: Toxicity of C31 peptide to 293T cells. It counts as cell-based. As for the experimental part: as §2
Primary hippocampal or cortical neuronal culturesor 293 cells transduced with the different penetratin-peptide conjugates were assayed for viability at 24 and 48 h after transduction by trypan blue exclusion or by conversion of 3-[4,5-Dimethylthiazol-2-yl]-2,5-diphenyltetrazolium bromide; Thiazolyl blue (MTT, Sigma, St. Louis) to formazan by dehydrogenase enzymes (MTT, Sigma, St. Louis) and by the LIVE/DEAD assay (Molecular Probes, Eugene, Oreg.), which distinguishes live cells by the presence of intracellular esterase activity, which results in the conversion of the non-fluorescent cell permeant calcein-AM to the intensely green fluorescent calcein. Calcein is retained witlin live cells. Ethidium homodimer-1 (EthD-1) enters cells with damaged membranes and becomes intensely fluorescent when bonding to nucleic acids. EthD-1 is excluded by the intact plasma membrane of live cells. Media were removed and replaced by 4 μM EthD-1 and 2 μM calcein in PBS. […]

Data set [2] has as its system primary hippocampal cultures. Briefly: Viability of primary hippocampal cultures by trypan blue exclusion. In kind it is cell-based, rat. As to conditions: preincubation with 5 μM Aβ for 24 h, then transduction in absence of Aβ; read-out: LC50 in primary cultures pre-exposed to sublethal fibrillar Aβ. As for the experimental part:
as §1, §3
Aβ exacerbates the sensitivity of hippocampal cultures to C31 toxicity. […] Thirty-six hours later, the cultures were evaluated by the LIVE/DEAD assay. […] Cells were stained with Hoechst 33342 and scored for nuclear condensation.

The test system of another data set is N2a neuroblastoma cells. Briefly: Annexin V-FITC staining of transfected N2a cells. It counts as cell-based, mouse. The note with it: expression by transfection. As for the experimental part: Mouse N2a neuroblastoma cells were grown at 37° C. and 5% CO2 in […] Dulbecco's modified Eagle's medium and 45% OptiMEM I (Life Technologies) supplemented with 10% fetal bovine serum and 2 mM glutamine. Plasmid constructs were introduced into the N2a cells with the LipofectAMINE plus transfection reagent (Life Technologies) according to the manufacturer's instructions.
N2a cells were plated on glass cover slips treated with polylysine and were transfected as described above. At 24 h after transfection, cells were directly stained with annexin V-FITC for apoptosis in tissue culture media, according to the manufacturer's instructions (annexin V-FITC Apoptosis Detection Kit; Calbiochem, La Jolla, Calif.). After being stained with annexin V-FITC, cells were fixed for 20 min in 4% parafoimaldehyde in phosphate-buffered saline and permeabilized in 0.5% Triton X-100 in phosphate-buffered saline for 5 min. After being blocked in 5% BSA in phosphate-buffered saline, the cells were incubated for 1 h at room temperature with CT15, diluted 1:2,000. In parallel, cells were stained with propidium iodide after annexin V staining and paraformaldehyde fixation but without permeabilization to verify membrane integrity; the combination of amnexin V staining and membrane integrity indicated apoptosis without secondary necrosis. The primary antibody was detected with Texas Red®-conjugated secondary antibody against rabbit (Molecular Probes, Eugene, Oreg.). Negative controls, which included preimmune serum and cells transfected with pcDNA3 (mock transfection), were assayed in parallel using the protocol described above. The cells were analyzed by confocal nmcroscopy using a BioRad MRC-1024 system. Cells in five random fields were counted for each slide, in duplicate for each condition. The number of cells positive and negative for APP or C31 and apoptosis (annexin V-FITC) were determined, and relative risk was calculated (RR=p1/p2)=concordant staining [(+/+) times (−/−)] divided by discordant staining [(+/−) times (−/+)].
Double-labeling of APP and annexin V in N2a cells after transfection was performed. N2a cells were transfected with either APP or C31 followed by staining with annexin V-FITC to visualize apoptotic cells. Transfected cells were immunolocalized with CT15 followed by Texas Red conjugated secondary antibody to visualize APP or C31 expression. When expressed in N2a cells, C31 but not APP is associated with apoptosis. A high proportion of C31 transfected cells are positive for amnexin V-FITC (green outline of the cell; RR=6.3), whereas in APP-expressing cells, annexin V-FITC staining is sparse (RR=0.77). In control cells transfected with pcDNA3 (mock transfection; control), there is no staining with annexin V-FITC and essentially no staining of endogenous APP at this antibody dilution. Images are representations of four different fields of view of each of three separate experiments.

In a further data set the test system is PTB domain of Fe65. Briefly: Binding of C31 to the PTB domain of Fe65. From the text:
Binding assays can be used to confirm this observation with respect to the C31 peptide derived from APLP1.

For AAVTPEERHLSKMQQNGYENPTYKFFEQMQN [C31], the CC50 with hippocampal neurons is 1 to 2 µM; in the data set on glial cells, 10 to 25 µM; in data set [1], 50 to 100 µM; in data set [2] it was below 0.5 µM. Moreover, the “relative risk (RR) of annexin V-FITC staining with expression” value with N2a neuroblastoma cells came out at 6.3. Further, the “annexin V-positive among construct-positive cells” value with N2a neuroblastoma cells (no tamoxifen or staurosporine, 24 h) is listed as 76±10%. Also, in the data set on PTB domain of Fe65, the “binding to the PTB domain of Fe65” value is reported as “binds to the PTB domain of Fe65”.
